Target: T1, human GPR84 receptor (Homo sapiens, UniProt Q9NQS5)
T1 construct: host or cells: HEK293, transient transfection
Test: Gαi biosensor BRET assay in HEK293 cells (antagonism of ZQ-16)
Format: cell-based
Conditions: for inhibition at 10 µM: HEK293, single concentration 10 μM (designated F); for IC50: HEK293 cells, antagonism of 200 nmol/L ZQ-16; for inhibition at 2 µM: HEK293, single concentration 2 μM (designated A)
In short: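 HEK293 cells transiently expressing human GPR84, Gαi2-Rluc8, GFP10-Gγ2 and Gβ1, in Tyrode's buffer pH 7.5. Compounds preincubated 5 min at 37° C, then 200 nmol/L ZQ-16 for 5 min at room temperature; coelenterazine 400A 5 μmol/L. BRET2 acceptor/donor ratio, background- and vehicle-corrected net BRET.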

T1 sequence (Q9NQS5 whole entry): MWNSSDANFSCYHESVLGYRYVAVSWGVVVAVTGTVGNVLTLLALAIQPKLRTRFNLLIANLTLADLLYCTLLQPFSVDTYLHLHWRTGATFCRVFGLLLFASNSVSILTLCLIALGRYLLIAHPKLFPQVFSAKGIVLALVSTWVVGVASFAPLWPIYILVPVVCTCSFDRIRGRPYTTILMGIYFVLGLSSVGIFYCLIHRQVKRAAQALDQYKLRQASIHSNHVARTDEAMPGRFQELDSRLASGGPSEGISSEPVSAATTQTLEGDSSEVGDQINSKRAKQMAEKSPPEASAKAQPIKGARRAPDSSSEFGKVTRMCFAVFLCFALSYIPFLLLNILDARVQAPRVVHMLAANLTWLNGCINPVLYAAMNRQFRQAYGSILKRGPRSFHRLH

Compound | inhibition at 10 µM | IC50 | other results
Cc1cc(N2CC(F)(F)C2)ccc1-c1cn(CC2CCCCO2)nn1 (centres unmarked) [Compound I-158] | ≤ 25% |  | 
Cc1cc(C#CC2CC2)ccc1-c1cn(CC2CCCCN2S(C)(=O)=O)nn1 (centres unmarked) [Compound I-191] | ≤ 25% |  | 
Cc1cc(N2CCC(O)CC2)ccc1-c1cn(CC2CCCCO2)nn1 (centres unmarked) [Compound I-449] | 25 to 50% |  | 
CC1(C)COC(Cn2cc(-c3ccc(C#CCN4CC(C)(C)C4)cc3OC3CC3)nn2)OC1 [Compound I-788] | > 75% | ≤ 300 nM | 
CC(C)Oc1cc(C#CCNc2ccccc2)cnc1-c1cn(CC2CC(C)(C)CO2)nn1 (centres unmarked) [Compound I-526] | 50 to 75% | ≤ 300 nM | 
Cc1cc(N2CCC(C)(C)C2)cnc1-c1cn(CC2CCCCO2)nn1 (centres unmarked) [Compound I-555] | ≤ 25% |  | 
Cc1ccc(C#CCN2CC(C)(C)C2)cc1Cc1cn(CC2CCCCO2)nn1 (centres unmarked) [Compound I-415] | 25 to 50% |  | 
CC(C)OCC#Cc1cnc(-c2cn(CC3OCC(C)(C)CO3)nn2)c(OC(C)C)c1 [Compound I-846] | ≤ 25% |  | 
Cc1cc(C#CC2CC2)ccc1-c1cn(CC23CC(C)(CO2)C3)nn1 [Compound I-556] |  |  | inhibition at 2 µM: ≤ 25%
CC1(CO)CN(c2ccc(-c3cn(CC4OCC5(CCC5)O4)nn3)c(CC(F)(F)F)c2)C1 (centres unmarked) [Compound I-796] |  | ≤ 300 nM | 
CCN(CC)c1cc(N2CC(C)(CO)C2)c(F)cc1-c1cn(CC2OCC3(CC3)CO2)nn1 [Compound I-801] |  | ≤ 300 nM | inhibition at 2 µM: > 75%
COC(c1cn(Cc2ncccn2)nn1)c1cc(C#CC2CC2)ccc1C (centres unmarked) [Compound I-674] |  | 300 to 1000 nM | inhibition at 2 µM: > 75%
CN1Cc2c(C#CC3CC3)ccc(-c3cn(CC4CCCCO4)nn3)c2C1 (centres unmarked) [Compound I-268] | ≤ 25% |  | 
COCCn1cc(-c2ccc(C#CC3CC3)cc2C)nn1 [Compound I-104] | ≤ 25% |  | 
FC(F)(F)c1ccc(C#CC2CC2)cc1-c1cn(CC2CCCCO2)nn1 (centres unmarked) [Compound I-179] | 25 to 50% |  | 
CC1(C)COC(Cn2cc(-c3c(Cl)cc(C#CC4CC4)c[n+]3[O-])nn2)OC1 [Compound I-817] | > 75% |  | 
Cc1ccccc1-c1cn(CC#Cc2ccc(-c3cn(CC4CCCCO4)nn3)c(C)c2)nn1 (centres unmarked) [Compound I-488] | 50 to 75% | ≤ 300 nM | 
CCc1ccc(C#CC2CC2)cc1-c1cn(CC2CCCCO2)nn1 (centres unmarked) [Compound I-160] | > 75% | > 3000 nM | 
COCC#Cc1cnc(-c2cn(CC3OCC(C)(C)CO3)nn2)c(OCC(F)(F)F)c1 [Compound I-847] | ≤ 25% |  | 
Cc1cccc(-c2cn(CC#Cc3cnc(-c4cn(CC5CCCCO5)nn4)c(C)c3)nn2)c1 (centres unmarked) [Compound I-718] |  | 300 to 1000 nM | inhibition at 2 µM: > 75%
Cc1cc(C#CCNC(=O)OC(C)C)ccc1-c1cn(CC2CCCCO2)nn1 (centres unmarked) [Compound I-616] | > 75% | > 3000 nM | 
Cc1ccc(C#CC2CC2)cc1Sc1cn(CC2OCC(C)(C)CO2)nn1 [Compound I-781, 4-((5-(cyclopropylethynyl)-2-methylphenyl)thio)-1-((5,5-dimethyl-1,3-dioxan-2-yl)methyl)-1H-1,2,3-triazole] | > 75% |  | 
Cc1cc(NC(=O)C2CC2)ccc1-c1cn(CC2CCCCO2)nn1 (centres unmarked) [Compound I-109] | 25 to 50% |  | 
Cc1cc(C#CC2CC2)ccc1-c1nnn(C[C@H]2CCCCO2)c1C [Compound I-45] |  |  | inhibition at 12.5 µM (HEK293, single concentration 12.5 μM (designated G)): 25 to 50%
C(#Cc1ccc(-c2cn(CC3CCCCO3)nn2)cc1)CC1CC1 (centres unmarked) [Compound I-44] | ≤ 25% |  | 
Cc1ccc(C#CC2CC2)cc1C(CC1CC1)c1cn(CC2OCC(C)(C)CO2)nn1 (centres unmarked) [Compound I-714] |  | 1000 to 3000 nM | inhibition at 2 µM: > 75%
Cc1cc(C#CC2CC2)ccc1-c1cn(CC2CC3(CC3)CO2)nn1 (centres unmarked) [Compound I-569] | > 75% | 1000 to 3000 nM | 
COC(c1cn(CC2OCC(C)(C)CO2)nn1)c1cc(C#CC2CC2)c(F)cc1C (centres unmarked) [Compound I-724] |  | ≤ 300 nM | inhibition at 2 µM: > 75%
Cc1cc(N2CC(NS(C)(=O)=O)C2)ccc1-c1cn(CC2CCCCO2)nn1 (centres unmarked) [Compound I-486] | ≤ 25% |  | 
COC1CCN(c2ccc(-c3cn(CC4CCCCO4)nn3)c(C)c2)CC1 (centres unmarked) [Compound I-437] | 25 to 50% |  | 

Source: patent publication US12617777B2, “GPR84 antagonists and uses thereof” (Liminal BioSciences Limited, priority 2021, dated 2026)
